Values of other authors as cited in patent publication US20020064788A1, “Systematic approach to mechanism-of-response analyses” (priority 2000, published 2002).
Read-outs that look alike come from different tables or passages of the source. Each block holds one molecule with its values, some of them ahead of it.

Legend:
Glioblastoma cell lines = settings: 30-60 nM, several Glioblastoma cell lines
breast cancer = settings: women on digitalis, five years after mastectomy
[1] = tested on: Daudi (B-cell) cell lines; settings: non-toxic doses
[2] = tested on: Jurkat (T-cell) cell lines
[3] = tested on: intracellular Ca^2+ levels; c-fos, c-jun, AP-1; settings: partial inhibition of Na+K+-ATPase
[4] = tested on: malignant and normal cells
androgen-dependent cells = settings: ouabain-induced decrease in Na+K+-ATPase activity

Molecule: digitalis
- apoptosis (Glioblastoma cell lines): induces apoptosis
- cell adherence (Glioblastoma cell lines): affects cell adherence
- reduction in recurrence of breast cancer (breast cancer): 9.6 fold
- apoptosis [1]: induces apoptosis
- apoptosis ([2]; non-toxic doses, Jurkat): induces apoptosis

Molecule: C[C@H]1O[C@@H](O[C@H]2[C@@H](O)C[C@H](O[C@H]3[C@@H](O)C[C@H](O[C@H]4CC[C@@]5(C)[C@H](CC[C@@H]6[C@@H]5CC[C@]5(C)[C@@H](C7=CC(=O)OC7)CC[C@]65O)C4)O[C@@H]3C)O[C@@H]2C)C[C@H](O)[C@@H]1O [Digitoxin]
- inhibition of Na+K+-ATPase (Na^+K^+-ATPase): specific inhibitors

Molecule: C[C@@H]1O[C@@H](O[C@H]2C[C@@H](O)[C@]3(CO)[C@H]4[C@H](O)C[C@]5(C)[C@@H](C6=CC(=O)OC6)CC[C@]5(O)[C@@H]4CC[C@]3(O)C2)[C@H](O)[C@H](O)[C@H]1O [ouabain]
- expression of c-fos, c-jun, and the transcription factor AP-1 [3]: increases
- intracellular Ca2+ levels [3]: increases
- sensitization to irradiation ([4]; malignant cells): sensitizes
- sensitization to irradiation ([4]; normal cells): not
- sensitivity of cells to cisplatin (androgen-dependent cells): reduces sensitivity
- inhibition of Na+K+-ATPase (Na^+K^+-ATPase): specific inhibitors

- inhibition of Na+K+-ATPase (Na^+K^+-ATPase): appears to inhibit
Molecule: CC/C(=C(\c1ccccc1)c1ccc(OCCN(C)C)cc1)c1ccccc1 [tamoxifen]

B1: Fas ligand: protein which binds to Fas receptor and strongly induces apoptosis (protein, UniProt P48023 130-281, looked up)
Tumor necrosis factor ligand …: QIGHPSPPPEKKELRKVAHLTGKSNSRSMPLEWEDTYGIVLLSGVKYKKGGLVINETGLYFVYSKVYFRGQSCNNLPLSHKVYMRNSKYPQDLVMMEGKMMSYCTTGQMWARSSYLGAVFNLTSADHLYVNVSELSLVNFEESQTFFGLYKL
- apoptosis ([2]; Jurkat cells, monitored by flow cytometry): induces apoptosis
